According to patent US20080255177A1, “ANTI-TUMOR ACTIVITY OF CCI-779 IN PAPILLARY RENAL CELL CANCER” (Wyeth, priority 2007, published 2008):
Values joined by “and” are separate entries in the source; they are usually repeats but may differ in a detail not shown here. Identical values can stand only once.

Test system: advanced metastatic renal cell carcinoma
Experiment: Phase III study of CCI-779 (temsirolimus) vs αIFN as first-line therapy
Format: in vivo
Settings: for OS median: first-line, αIFN 3 MU escalating to 18 MU s.c. 3 times/week or CCI-779 25 mg i.v. weekly
Text: In this phase III study, 626 advanced metastatic renal cell carcinoma patients from 26 countries were randomized to αIFN or CCI-779 (temsirolimus) as first-line therapy. This group is a very poor prognosis group of patients with many risk factors for early death. Patients received 3 million units (MU) of αIFN-alone subcutaneously 3 times/week, escalating to 18 MU or 25-mg CCI-779 intravenous infusion weekly.
Eligibility for this study required histologically confirmed, advanced (stage IV or recurrent disease) RCC with no prior systemic therapy for the disease. Subjects with central nervous system metastases, prior anticancer therapy for RCC and prior investigational therapy/agents within 4 weeks of randomization were excluded from the study.
The primary objective of this study was efficacy with a primary endpoint of overall survival. Secondary objectives of this study were safety, health outcomes, and additional efficacy endpoints. The secondary efficacy endpoints of this study were an evaluation of progression-free survival, response rate (complete and partial responses), clinical benefit rate, the duration of overall response, time to treatment failure, and health outcomes measurements. In addition, subject responses across all 3 treatment arms were evaluated based on screening tumor expression of proteins involved in the AKT-mTOR pathway. Other planned and post-hoc analyses were performed to assess influence of tumor histology (clear cell vs. non-clear cell), age (vs. >/=), and prognostic-risk groups (intermediate vs. poor).

[1] = patients <65yo, previously untreated advRCC, vs. αIFN
[2] = patients with clear-cell tumor histology
[3] = patients with other (non clear-cell) tumor histology
[4] = previously untreated clear-cell advRCC, vs. αIFN
[5] = previously untreated non clear-cell advRCC, TEMSR alone vs. αIFN

With CO[C@H]1C[C@@H]2CC[C@@H](C)[C@@](O)(O2)C(=O)C(=O)N2CCCC[C@H]2C(=O)O[C@H]([C@H](C)C[C@@H]2CC[C@@H](OC(=O)C(C)(CO)CO)[C@H](OC)C2)CC(=O)[C@H](C)/C=C(\C)[C@@H](O)[C@@H](OC)C(=O)[C@H](C)C[C@H](C)/C=C/C=C/C=C/1C [TEMSR, rapamycin 42-ester with 3-hydroxy-2-(hydroxymethyl)-2-methylpropionic acid] the “OS hazard ratio, TEMSR vs. αIFN” value (patients <65 years old) was 0.62 and 0.61, the “PFS hazard ratio, TEMSR vs. αIFN” value (patients <65 years old) was 0.61 and 0.62 and the “OS improved by” value [1] was 64%. For the same molecule, the “PFS prolonged by” value [1] was 61%, the “reduction in risk of death” value [1] was 39% and the “risk of death or disease progression reduced by” value [1] was 38%. For the same molecule, the “difference in OS or PFS, TEMSR or αIFN” value (patients >/=65 years old) was “no difference”, the “OS HR, TEMSR:IFN” value [2] was 0.82 and the “PFS HR, TEMSR:IFN” value [2] was 0.76. For the same molecule, the PFS median [2] was 5.5 mo, the OS median [2] was 10.7 mo and the “OS HR, TEMSR:IFN” value [3] was 0.49. The “PFS HR, TEMSR:IFN” value [3] was 0.38, the PFS median [3] was 7.0 mo and the OS median [3] was 11.6 mo. For the same molecule, the “OS improved by” value [4] was 22%, the “PFS prolonged by” value [4] was 31% and the “reduction in risk of death” value [4] was 18%. The “risk of death or disease progression reduced by” value [4] was 24%, the “OS improved by” value [5] was 104% and the “PFS prolonged by” value [5] was 163%. The “reduction in risk of death” value [5] was 51%, the “risk of death or disease progression reduced by” value [5] was 62% and the “side effect profile vs. αIFN” value (stated for patients >/=65 years old) was “better side effect profile than αIFN”.
